From BindingDB's records for doi:10.1039/c4ob00214h (Lanzhou University, 2014)

Legend:
[1] = biological target: T1, Tyrosine-protein phosphatase non-receptor type 1 (Homo sapiens, UniProt P18031)
T1 sequence (P18031 whole entry): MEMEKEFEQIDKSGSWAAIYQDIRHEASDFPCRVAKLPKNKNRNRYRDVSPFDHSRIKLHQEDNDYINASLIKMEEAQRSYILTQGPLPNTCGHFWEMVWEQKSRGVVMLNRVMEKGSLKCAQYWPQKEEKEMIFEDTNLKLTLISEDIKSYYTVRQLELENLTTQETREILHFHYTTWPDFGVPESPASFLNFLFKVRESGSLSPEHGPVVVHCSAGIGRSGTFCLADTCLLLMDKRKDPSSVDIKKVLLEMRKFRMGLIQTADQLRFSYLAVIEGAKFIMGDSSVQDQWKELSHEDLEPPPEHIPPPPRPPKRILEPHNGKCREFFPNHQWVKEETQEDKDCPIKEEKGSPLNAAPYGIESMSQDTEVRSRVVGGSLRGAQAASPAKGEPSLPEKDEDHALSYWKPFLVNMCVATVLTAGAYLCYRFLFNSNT

[2] = biological target: T2, Tyrosine-protein phosphatase non-receptor type 2 (Homo sapiens, UniProt P17706)
T2 sequence (P17706 whole entry): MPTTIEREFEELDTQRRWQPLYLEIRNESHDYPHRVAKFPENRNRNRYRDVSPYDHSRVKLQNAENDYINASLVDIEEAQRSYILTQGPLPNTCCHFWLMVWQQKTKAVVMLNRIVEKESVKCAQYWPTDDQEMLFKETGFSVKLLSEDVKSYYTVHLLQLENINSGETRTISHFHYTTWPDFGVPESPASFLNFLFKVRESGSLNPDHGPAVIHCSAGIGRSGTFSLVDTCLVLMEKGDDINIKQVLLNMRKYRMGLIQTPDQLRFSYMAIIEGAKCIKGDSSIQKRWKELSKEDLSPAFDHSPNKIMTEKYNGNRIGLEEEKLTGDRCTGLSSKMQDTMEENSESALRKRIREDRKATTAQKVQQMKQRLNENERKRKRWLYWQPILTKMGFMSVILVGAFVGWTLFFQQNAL

[3] = biological target: T3, M-phase inducer phosphatase 2 (Homo sapiens, UniProt P30305)
T3 sequence (P30305 whole entry): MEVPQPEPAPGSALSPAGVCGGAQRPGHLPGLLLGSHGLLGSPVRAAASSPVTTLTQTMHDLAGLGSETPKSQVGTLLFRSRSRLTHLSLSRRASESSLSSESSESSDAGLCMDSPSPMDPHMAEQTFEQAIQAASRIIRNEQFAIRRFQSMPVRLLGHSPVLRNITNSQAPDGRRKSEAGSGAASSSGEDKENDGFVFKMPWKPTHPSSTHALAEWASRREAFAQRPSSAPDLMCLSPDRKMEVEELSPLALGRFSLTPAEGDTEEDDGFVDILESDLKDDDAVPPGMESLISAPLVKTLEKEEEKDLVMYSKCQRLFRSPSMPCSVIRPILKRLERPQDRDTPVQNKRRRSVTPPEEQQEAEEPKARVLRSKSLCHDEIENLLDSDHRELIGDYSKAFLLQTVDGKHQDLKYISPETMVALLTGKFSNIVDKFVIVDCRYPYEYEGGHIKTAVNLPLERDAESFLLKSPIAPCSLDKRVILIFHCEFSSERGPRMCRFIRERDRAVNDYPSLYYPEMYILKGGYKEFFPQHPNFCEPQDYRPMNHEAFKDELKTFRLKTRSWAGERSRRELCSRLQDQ

[4] = biological target: Tyrosine-protein phosphatase non-receptor type 6 (Homo sapiens, UniProt P29350)
Tyrosine-protein phosphatase non-receptor type 6, sequence (P29350 whole entry): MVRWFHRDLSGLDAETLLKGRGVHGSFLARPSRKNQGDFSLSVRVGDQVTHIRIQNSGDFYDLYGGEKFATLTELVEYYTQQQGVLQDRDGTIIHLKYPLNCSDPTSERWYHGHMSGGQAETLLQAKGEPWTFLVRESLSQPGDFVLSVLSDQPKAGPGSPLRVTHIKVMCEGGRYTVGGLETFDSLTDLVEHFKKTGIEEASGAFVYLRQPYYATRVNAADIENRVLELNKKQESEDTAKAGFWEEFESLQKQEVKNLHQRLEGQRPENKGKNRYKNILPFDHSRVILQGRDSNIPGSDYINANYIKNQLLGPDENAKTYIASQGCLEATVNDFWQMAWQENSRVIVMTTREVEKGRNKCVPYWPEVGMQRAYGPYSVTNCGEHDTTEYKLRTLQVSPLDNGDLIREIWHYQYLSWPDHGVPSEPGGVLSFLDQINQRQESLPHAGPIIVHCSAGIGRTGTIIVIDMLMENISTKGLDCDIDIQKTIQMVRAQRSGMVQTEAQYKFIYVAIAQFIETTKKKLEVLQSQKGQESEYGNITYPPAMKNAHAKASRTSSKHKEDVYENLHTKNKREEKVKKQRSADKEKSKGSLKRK

[5] = biological target: T4, Tyrosine-protein phosphatase non-receptor type 11 (Homo sapiens, UniProt Q06124)
T4 sequence (Q06124 whole entry): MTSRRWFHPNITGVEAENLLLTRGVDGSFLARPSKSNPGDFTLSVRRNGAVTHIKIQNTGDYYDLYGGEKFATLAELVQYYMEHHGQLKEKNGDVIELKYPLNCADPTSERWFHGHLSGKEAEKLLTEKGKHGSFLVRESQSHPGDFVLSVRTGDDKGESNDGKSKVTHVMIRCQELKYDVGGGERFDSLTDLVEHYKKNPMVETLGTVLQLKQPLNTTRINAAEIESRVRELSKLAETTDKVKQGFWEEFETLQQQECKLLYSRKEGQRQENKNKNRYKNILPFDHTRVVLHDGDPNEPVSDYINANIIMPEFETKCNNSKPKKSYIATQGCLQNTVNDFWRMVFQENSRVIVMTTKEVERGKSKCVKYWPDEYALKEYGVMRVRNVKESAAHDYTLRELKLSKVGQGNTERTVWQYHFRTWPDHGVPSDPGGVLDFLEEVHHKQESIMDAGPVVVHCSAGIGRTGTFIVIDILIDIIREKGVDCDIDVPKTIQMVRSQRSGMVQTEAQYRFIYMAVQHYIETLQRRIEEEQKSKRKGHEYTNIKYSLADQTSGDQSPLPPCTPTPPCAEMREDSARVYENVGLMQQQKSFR

Row | Structure (SMILES) | IC50 [1] [µM] | IC50 [2] [µM] | IC50 [3] [µM] | IC50 [4] [µM] | IC50 [5] [µM]
1 | CCCCCCCCCCCCC/C=C/[C@@]12C(=O)O[C@@H](C)[C@@H]1[C@H]1C(=CC2CCCCCCCCCCCC)C(=O)O[C@H]1C (stereo partly drawn) [(1R,2S,3S,8R,9S,12S)-8-dodecyl-3,12-dimethyl-9-[(1E)-pentadec-1-en-1-yl]-4,11-dioxatricyclo[7.3.0.0,⁶]dodec-6-ene-5,10-dione (7)] | 4.27 | 31.8 | 3.93 |  | 
2 | CCCCCCCCCCCC/C=C/[C@@]12C(=O)O[C@@H](C)[C@@H]1[C@H]1C(=C[C@H]2CCCCCCCCCCCC)C(=O)O[C@H]1C [(1R,2S,3S,8R,9S,12S)-8-dodecyl-3,12-dimethyl-9-[(1E)-tetradec-1-en-1-yl]-4,11-dioxatricyclo[7.3.0.0,⁶]dodec-6-ene-5,10-dione (6)] | 3.25 | 13.2 | 2.34 |  | 
3 | CCCCCCCCCCCC[C@@H]1C=C2C(=O)O[C@@]3(C)O[C@@]4(C)OC(=O)[C@]1(CO)[C@H]4[C@@H]23 [(1R,6R,7S,10S,11R,12S)-6-dodecyl-7-(hydroxymethyl)-1,10-dimethyl-2,9,13-trioxatetracyclo[8.2.1.0⁴,.0⁷,]tridec-4-ene-3,8-dione (15)] | 20.4 | 19.8 | 17 |  | 
4 | CCCCCCCCCCCC[C@@H]1C=C2C(=O)O[C@@]3(C)O[C@@]4(C)OC(=O)[C@]1(C=O)[C@H]4[C@@H]23 [(1S,4S,5R,10R,11S,12R)-5-dodecyl-1,10-dimethyl-3,8-dioxo-2,9,13-trioxatetracyclo[8.2.1.0⁴,.0⁷,]tridec-6-ene-4-carbaldehyde (14)] | 6 | 9.38 | 8.33 |  | 
5 | CCCCCCCCCCCCC/C=C/[C@@]12C(=O)O[C@@H](C)[C@@H]1[C@H](C(C)=O)C(C(=O)O)=C[C@H]2CCCCCCCCCCCC [(3S,3aR,4S,7R,7aS)-4-acetyl-7-dodecyl-3-methyl-1-oxo-7a-[(1E)-pentadec-1-en-1-yl]-1,3,3a,4,7,7a-hexahydro-2-benzofuran-5-carboxylic acid (9)] | 0.27 | 2.55 | 0.22 | 3.86 | 3.13
6 | CCCCCCCCCCCCC/C=C/[C@@]12C(=O)O[C@@H](C)[C@@H]1[C@H](C(C)=O)C(C(=O)O)=CC2CCCCCCCCCCCC (stereo partly drawn) [(3S,3aR,4S,7aS)-4-acetyl-7-dodecyl-3-methyl-1-oxo-7a-[(1E)-pentadec-1-en-1-yl]-1,3,3a,4,7,7a-hexahydro-2-benzofuran-5-carboxylic acid (10)] | 0.27 | 4.73 | 0.2 | 4.41 | 1.71
7 | CCCCCCCCCCCC/C=C/[C@]12C(=O)O[C@]3(C)O[C@]4(C)OC(=O)C(=C[C@H]1CCCCCCCCCCCC)[C@@H]4[C@@H]32 [Paracaseolide A (13)] | 1.5 | 6.01 | 2.34 |  | 
